According to patent publication US20250381200A1, “SINGLE-INJECTION METHODS AND FORMULATIONS TO CONTROL THE ONSET OF ESTRUS AND OVULATION IN BOVINE, CAPRINE, OVINE, CAMELID AND OTHER FEMALE ANIMALS” (Therio, LLC, priority 2024, published 2025):
Where two headings read alike, the source gives them in different places.

Assays:
[1] = bovine, in vivo
[2] = bovine, in vivo; remark: listed apart in the source

With `CC(=O)[C@H]1CC[C@H]2[C@@H]3CCC4=CC(=O)CC[C@]4(C)[C@H]3CC[C@]12C` [P4, progesterone] the “P4 concentration in the blood stream after decrease” value [1] was 0.2 to 0.6 ng/mL, the “P4 concentration in the blood stream, achieved and maintained” value [1] was 2.0 to 3.0 ng/mL and the “P4 concentration in the blood stream after decrease” value [2] was 1.0-1.5 ng per ml. The “P4 concentration in the blood stream, achieved within 12 hours and maintained” value [2] was 2.0 to 3.0 ng/mL.
